Source: ChEMBL document CHEMBL6177995, “In Silico Discovery of Novel Potent Trace Amine-Associated Receptor TAAR1 Agonists as Promising Drug Candidates for the Treatment of Schizophrenia” (J Med Chem, 2025)

Experiments:
[1] = target: T1, Trace amine-associated receptor 1 (Homo sapiens, UniProt Q96RJ0); assay: Agonist activity at TAAR1 (unknown origin) transfected in HEK293 cells co-transfected with Galphaq-Nluc, Gbeta1/3 and Ggamma1/2/9-mVenus assessed as Galphaq-Gbeta/gamma dissociation by BRET assay; format: functional, cell-based
T1 sequence (Q96RJ0 whole entry): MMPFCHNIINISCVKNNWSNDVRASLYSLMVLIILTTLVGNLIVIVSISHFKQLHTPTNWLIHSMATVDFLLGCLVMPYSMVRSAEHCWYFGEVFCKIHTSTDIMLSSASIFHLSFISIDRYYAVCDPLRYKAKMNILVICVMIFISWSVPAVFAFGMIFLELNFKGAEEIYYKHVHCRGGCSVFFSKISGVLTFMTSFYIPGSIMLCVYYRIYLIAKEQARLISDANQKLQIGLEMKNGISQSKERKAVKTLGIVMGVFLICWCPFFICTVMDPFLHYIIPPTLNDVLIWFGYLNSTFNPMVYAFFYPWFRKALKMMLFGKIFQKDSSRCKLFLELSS

[2] = target: T1, Trace amine-associated receptor 1; assay: Agonist activity at TAAR1 (unknown origin) transfected in HEK293 cells co-transfected with GalphaS-Nluc, Gbeta1/3 and Ggamma1/2/9-mVenus assessed as GalphaS-Gbeta/gamma dissociation by BRET assay; format: functional, cell-based

EC50 [1] [µM]	EC50 [2] [µM]	Structure (SMILES)
0.0416	–	CC(=O)Nc1ccc(S(=O)(=O)NC[C@@H]2CCCN2)cc1
> 10	> 10	O=[N+]([O-])c1ccccc1S(=O)(=O)NC[C@@H]1CCCN1
> 10	> 10	O=S(=O)(NC[C@@H]1CCCN1)c1ccc(Br)cc1
> 10	> 10	O=S(=O)(NC[C@@H]1CCCN1)c1ccccc1
> 10	> 10	O=S(=O)(NC[C@@H]1CCCN1)c1ccc(Cl)cc1
> 10	> 10	O=S(=O)(NC[C@@H]1CCCN1)c1cccc(C(F)(F)F)c1
> 10	> 10	Cc1cccc(S(=O)(=O)NC[C@@H]2CCCN2)c1
> 10	> 10	O=S(=O)(NC[C@@H]1CCCN1)c1cc(F)cc(F)c1
> 10	> 10	O=S(=O)(NC[C@@H]1CCCN1)c1ccc(Cl)s1
> 10	> 10	Cc1ccc(S(=O)(=O)NC[C@@H]2CCCN2)cc1
> 10	> 10	O=S(=O)(NC[C@@H]1CCCN1)c1cccc(Br)c1
> 10	> 10	O=S(=O)(NC[C@@H]1CCCN1)c1ccccc1C(F)(F)F
> 10	> 10	O=[N+]([O-])c1ccc(S(=O)(=O)NC[C@@H]2CCCN2)cc1
> 10	> 10	O=[N+]([O-])c1cccc(S(=O)(=O)NC[C@@H]2CCCN2)c1
> 10	> 10	O=S(=O)(NC[C@@H]1CCCN1)c1ccccc1Br
–	0.158	O=c1[nH]c2cc(S(=O)(=O)NC[C@@H]3CCCN3)ccc2o1
> 10	> 10	O=S(=O)(NC[C@@H]1CCCN1)c1ccc(O)cc1
–	0.161	COc1ccc2c(c1OC)C(=O)OC2Nc1ccccn1 (centres undefined)
–	0.275	CCC[C@H]1CN(C(=O)c2cc(Cl)cn2C)C[C@@H]1N
